27 compounds from PubChem BioAssay AID743128 (Broad Institute, 2013) can be followed below.

Values joined by “and” are separate entries in the source; they are usually repeats but may differ in a detail not shown here. Identical values can stand only once. Active and inactive are the calls of the source.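 Rule for the calls: active = compounds lowering the signal whose fitted half-maximal concentration is at most twice the top tested dose; inconclusive = flat curve with 30 to 70% inhibition, or poor fit; inactive = the rest.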

System in the first assay: not listed separately
Put plainly: antifungal activity, alamar blue, dry powder, counter-screen for C. neoformans cell wall antifungals, dose response (AID 743128). As to conditions: C. neoformans growth, alamar blue, 24 h; at 35 µM (top of the series). (Resazurin is reduced to fluorescent resorufin, in cell work by metabolically active cells.)
Turning to `c1ccc(OCCn2cnc3ccccc32)cc1`, the activity change, negative = inhibition is -10.7% (inactive). Same read-out and setting: under `CCOC(=O)c1c(NC(=O)CNCCN(C)C)sc(C)c1-c1ccccc1` stands -16.3% (inactive). The same measure, in the same setting: under `CCOC(=O)c1c(-c2ccc(OC)cc2)csc1NC(=O)CN(C)CC(=O)N(C)C` stands -14.4% (inactive); under `O=c1[nH]c2ccccc2n1CCOc1ccccc1`, -1.57% (inactive) and -23.3% (inactive); under `CCOC(=O)c1c(-c2ccc(F)cc2)csc1NC(=O)CN1CCN(C)CC1`, -11.2% (inactive). As for `Cc1cccc(OCCn2c(=S)[nH]c3cc(C(F)(F)F)ccc32)c1`, the activity change, negative = inhibition is 8.48% (inactive).

The subject of the next assay is C. neoformans growth, alamar blue, 24 h. The description is as above.
Details: not given
As a reminder, the AC50 is the midpoint of the concentration-response curve, whichever way the signal moves. In the case of `S=c1[nH]c2cccc(Cl)c2n1CCOc1ccccc1`, the concentration at half-maximal activity (AC50) was 6.35 µM.

With `CCOC(=O)c1c(-c2ccc(-c3ccccc3)cc2)csc1NC(=O)CNCCN(C)C`, the AC50 is 21.7 µM. Still for that read-out and setting: under `CCOC(=O)c1c(NC(=O)CN2CCN(C)CC2)sc(C)c1-c1ccc(C)cc1` stands 25.7 µM; under `COC(=O)C1=C(C)N(Cc2ccccc2)C(=S)NC1c1ccc(Br)cc1` (configuration not stated), 8.1 µM; under `COC(=O)C1=C(C)N(Cc2ccc(Br)cc2)C(=S)NC1c1ccc(OC)cc1` (configuration not stated), 9.31 µM. Same read-out and setting: the figure for `S=c1[nH]c2ccccc2n1CCOc1ccc(Cl)cc1` is 10.9 µM; for `Cc1ccc(OCCn2c(=S)[nH]c3ccccc32)c(C(C)C)c1` it is 5.33 µM and 5.68 µM. On the same count and under the same terms, under `COC(=O)C1=C(C)N(Cc2ccc(F)cc2)C(=S)NC1c1cccc(F)c1` (configuration not stated) stands 18.3 µM; under `CCOc1ccc(OCCn2c(=S)[nH]c3ccccc32)cc1`, 25.5 µM. On to `Fc1ccccc1OCCn1c(=S)[nH]c2ccccc21`, for which the AC50 was 25.4 µM. `Cc1ccc(OCCn2c(SCCO)nc3ccccc32)c(C(C)C)c1`: the half-maximal activity concentration (AC50) is 25.1 µM.

On to `CCOC(=O)c1c(-c2ccc(C(C)(C)C)cc2)csc1NC(=O)CN1CCN(C)CC1`, for which the concentration at half-maximal activity (AC50) is 15 µM. As for `Cc1ccc2c(c1)[nH]c(=S)n2CCOc1ccccc1`, the AC50 is 24.3 µM. `Cc1ccc(OCCn2c(=S)[nH]c3ccccc32)cc1`: the AC50 is 9.48 µM. Same read-out and setting: under `Fc1cccc2c1[nH]c(=S)n2CCOc1ccccc1` stands 25.4 µM; under `Cc1ccc(C(C)C)c(OCCn2c(=S)[nH]c3ccccc32)c1`, 4.14 µM; under `COC(=O)C1=C(C)N(Cc2ccc(Br)cc2)C(=S)NC1c1ccc(F)cc1` (configuration not stated), 4.9 µM. On to `CCOC(=O)c1c(-c2ccc(C(C)(C)C)cc2)csc1NC(=O)CN1CCN(CC)CC1`, for which the AC50 was 15.7 µM. Consider `S=c1[nH]c2ccccc2n1CCOc1ccccc1`, for which the concentration at half-maximal activity (AC50) is 24.9 µM. As to `Cc1ccccc1OCCn1c(=S)[nH]c2ccccc21`, the AC50 was 8.04 µM. In the case of `COC(=O)C1=C(C)N(Cc2ccc(Cl)cc2)C(=S)NC1c1ccc(Br)cc1` (configuration not stated), the AC50 was 1.97 µM.
